Laboratory results reported in patent publication US4268505A, “Pharmaceutical composition comprising a nitrogen-containing polysaccharide and an antibiotic agent, and a method of treating an infectious disease therewith” (priority 1979, dated 1981).

Key:
Escherichia coli = assay: Minimum growth inhibiting concentration, agar plate method; assay type: cell-based; details: for Minimum growth inhibiting concentration: strain resistant to the respective drug
Procedure: (§1) The drug-resistant strains of bacterial species were obtained in the manner described below according to the concentration gradient plate culture (see "Chemotherapeutics and Resistant Bacteria", 1970, By Chikara Watanabe, Asakura Shoten).
(§2) The agar plates with drug concentration gradient ranging from 10 to 100 μg/ml were prepared, and each strain of the bacterial species to be tested was streaked or smeared. These plates were kept at 37° C. for several days and the colony formed in the high concentration area was isolated and again similarly inoculated to the plates. Such operation was repeated several times to obtain the bacterial strains resistant to the respective drugs.
(§3) The drug sensitivity of the drug-resistant strains and that of the original strains (sensitive strains) were compared by way of the minimum growth inhibiting concentration (hereinafter abbreviated as MIC) according to the Standard Method of the Japanese Chemotherapeutical Association (see "Chemotherapy" Vol. 22, No. 6, 1126 (1974), by MIC Determination Method Reform Committee). More specifically, double diluted systems of each drug were prepared and they were mixed with the heart-infusion agar medium (Nippon Eiyo Kagaku Co., Ltd.) to form the agar plates. Then a loopful of each strain, which had been cultured at 37° C. in Trypto-soy bouillon (Nippon Eiyo Kagaku Co., Ltd.) for 18 hr. was smeared on each the plate, and after culturing for 18 hr. at 37° C., the growth of the strain on each plate was examined.
(§4) MIC has apparently been reduced to half the level or less before addition of the present substance as will be seen in Table 3 of EXAMPLE 1. The amount of the present substance added is more than 10 μg/ml, preferably more than 100 μg/ml. The pH of the medium was maintained at 7.2±0.1 so that MIC would not be affected by pH of the medium.
(§5) Specimens of the drug-resistant bacterial strain were obtained according to the aforementioned concentration-gradient plate culture by using Staphylococcus aureus, Streptococcus faecalis, Escherichia coli, Salmonella enteritidis, Klebsiella pneumoniae and Pseudomonas aeruginosa. The MICs of the original bacterial strains and those of the bacterial strains which have developed resistance to the respective antibiotics are summarized in Table 2.

Salmonella enteritidis = assay: as above; assay type: cell-based; details: for Minimum growth inhibiting concentration: strain resistant to the respective drug
Procedure: as §1, §2, §3, §4, §5

[1] = system: streptomycin resistant strain of Klebsiella pneumoniae; assay: Therapeutical test in mice infected with streptomycin-resistant Klebsiella pneumoniae (Example 7); assay type: in vivo, male ICR-JCL mouse; details: streptomycin singly 100 mg/kg i.p., 6 days after administration
Procedure: The streptomycin resistant strain of Klebsiella pneumoniae was obtained by the procedure of Exampe 1 and 0.25 ml of a Trypto-soy bouillon (see Example 2) containing 5% of mucin and the bacterial strain was intraperitoneally inoculated to each mouse of 2 groups of male ICR-JCL mouse, the group consisting of 10 mice at the rate of 1×10^8 cells per mouse. Three hours after this inoculation, 100 mg/kg of streptomycin was intraperitoneally administered. Another group was further given 120 mg/kg of the present substance, obtained by the description in Example 6, via intraperitoneal administration. The survival rate 6 days after administration was 50% in the group where streptomycin was used singly, but it was as high as 80% in the group where the present substance was used with streptomycin.

Staphylococcus aureus = assay: Minimum growth inhibiting concentration, agar plate method; assay type: cell-based; details: for Minimum growth inhibiting concentration: strain resistant to the respective drug
Procedure: as §1, §2, §3
(§6) The amount of the present substance added is more than 10 μg/ml, preferably more than 100 μg/ml. The pH of the medium was maintained at 7.2±0.1 so that MIC would not be affected by pH of the medium.
(§7) Specimens of the drug-resistant bacterial strain were obtained according to the aforementioned concentration-gradient plate culture by using Staphylococcus aureus, Streptococcus faecalis, Escherichia coli, Salmonella enteritidis, Klebsiella pneumoniae and Pseudomonas aeruginosa.

Klebsiella pneumoniae = assay: as above; assay type: cell-based; details: for Minimum growth inhibiting concentration: strain resistant to the respective drug
Procedure: as §1, §2, §3, §6, §7

[2] = system: chloramphenicol-resistant strain of Salmonella enteritidis; assay: Therapeutical test in mice infected with chloramphenicol-resistant Salmonella enteritidis (Example 6); assay type: in vivo, male ICR-JCL mouse; details: chloramphenicol alone 50 mg/kg i.p., 5 days after administration
Procedure: The following experiment was then carried out on the present substance having the above-mentioned properties.
The chloramphenicol-resistant strain of Salmonella enteritidis were obtained as in Example 1.
A quarter milli-liter of suspension of the aforementioned chloramphenicol-resistant bacterial strain in Tryptosoy-bouillon (see Example 2) including 5% of mucin was intraperitoneally inoculated to each mouse of 5 groups of male ICR-JCL mouse, the group consisting of 10 mice. The inoculum was 1×10^8 cells/mouse. Twenty five hours after the inoculation, 50 mg/kg of chloramphenicol was administered intraperitoneally. 500 mg/kg of the present substance was further given orally to another group. The rate of survival 5 days after the administration was 40% in the group where chloramphenicol alone was administered, while it was 80% in the group where the antibiotic was given in combination with the present substance.

[3] = strain resistant to the respective antibiotic (Table 2)
[4] = present substance added at 1000 μg/ml
[5] = present substance not added (Table 3)
[6] = present substance added at 100 μg/ml

SMILES	Minimum growth inhibiting concentration (MIC) (Escherichia coli; original strain)	Minimum growth inhibiting concentration (MIC) (Escherichia coli; [3])	Minimum growth inhibiting concentration (Escherichia coli; [5])	Minimum growth inhibiting concentration (MIC) (Salmonella enteritidis; original strain)	Minimum growth inhibiting concentration (MIC) (Salmonella enteritidis; [3])	Minimum growth inhibiting concentration (MIC) (Staphylococcus aureus; original strain)	Minimum growth inhibiting concentration (MIC) (Staphylococcus aureus; [3])	Minimum growth inhibiting concentration (MIC) (Klebsiella pneumoniae; original strain)	Minimum growth inhibiting concentration (MIC) (Klebsiella pneumoniae; [3])	Minimum growth inhibiting concentration (Klebsiella pneumoniae; [5])	Minimum growth inhibiting concentration (Staphylococcus aureus; [5])	further results
[H]/N=C(/N)N[C@H]1[C@H](O)[C@@H](O)[C@H](O[C@@H]2O[C@@H](C)[C@](O)(C=O)[C@H]2O[C@@H]2O[C@@H](CO)[C@H](O)[C@@H](O)[C@@H]2NC)[C@@H](N/C(N)=N\[H])[C@@H]1O [SM, Streptomycin]	3.1 µg/mL	100 µg/mL	100 µg/mL	25 µg/mL	> 100 µg/mL	1.6 µg/mL	> 100 µg/mL	1.6 µg/mL	100 µg/mL	100 µg/mL	–	Minimum growth inhibiting concentration (Escherichia coli; [4]): 25 µg/mL; survival rate [1]: 50%; Minimum growth inhibiting concentration (Klebsiella pneumoniae; [4]): 25 µg/mL
CC1(C)S[C@@H]2[C@H](NC(=O)Cc3ccccc3)C(=O)N2[C@H]1C(=O)O [PG, Penicillin G]	12.5 µg/mL	> 100 µg/mL	–	6.3 µg/mL	> 100 µg/mL	0.025 µg/mL	12.5 µg/mL	6.3 µg/mL	> 100 µg/mL	–	12.5 µg/mL	Minimum growth inhibiting concentration (Staphylococcus aureus; [4]): 1.6 µg/mL
O=C(N[C@H](CO)[C@H](O)c1ccc([N+](=O)[O-])cc1)C(Cl)Cl [CP, Chlorampheniocol]	1.6 µg/mL	50 µg/mL	50 µg/mL	0.8 µg/mL	12.5 µg/mL	3.1 µg/mL	25 µg/mL	0.8 µg/mL	25 µg/mL	25 µg/mL	25 µg/mL	Minimum growth inhibiting concentration (Escherichia coli; [6]): 12.5 µg/mL; Minimum growth inhibiting concentration (Salmonella enteritidis; [6]): 3.2 µg/mL; Minimum growth inhibiting concentration (Salmonella enteritidis; [5]): 12.5 µg/mL; rate of survival [2]: 40%; Minimum growth inhibiting concentration (Staphylococcus aureus; [6]): 6.3 µg/mL; Minimum growth inhibiting concentration (Klebsiella pneumoniae; [6]): 6.3 µg/mL
